How the values were obtained:
Assay type in all cases: cell-based, human
[1] = system: RS4;11 and SEM cells; assay: Cell cycle distribution by flow cytometry (PI); conditions: 24 h, different concentrations
Description: FIGURE 1 CP uptake and effects on cell cycle and apoptosis induction A) RS4;11, SEM, THP1, Jurkat cell lines and healthy PBMC were incubated with 6.25, 12.5 and 25 μM of CP for 24 h. The intracellular accumulation of CP was detected by GF-AAS analysis. B) SEM and RS4;11 cells were treated with the indicated concentrations of CP for 24 h, cell cycle distribution and Sub-G1 contents were analyzed by flow cytometry after cell staining with PI. The percentages of each phase of the cell cycle (G1, S, G2/M) were calculated on living cells whereas the percentages of cells with hypodiploid DNA content peak (subG1) was referred to cell population characterized by the appearance of subG1 peak. C) SEM and RS4;11 cells were incubated with 2.5 μM CP for the indicated times and analyzed by flow cytometry after double staining with Annexin-V-FITC and PI. Data are represented as mean ± S.E.M. of three independent experiments.
The effects of different concentrations of CP on cell cycle progression were examined in RS4;11 and SEM cells after 24 h of treatment.
5×10^5 RS4;11 and SEM cells in exponential growth were treated with different concentrations of CP for different times. After the incubation, cells were collected, centrifuged and fixed with ice-cold ethanol (70%) and stained with PI as described previously. DNA histograms were analyzed using Multicycle for Windows (Phoenix Flow Systems)

[2] = system: Resting healthy PBMC; assay: MTT growth inhibition, 72 h; conditions: mean ± SE
[3] = system: XBP1; assay: PCR analysis of XBP1 splicing; conditions: CP 2.5 μM, 12 h
Description: Moreover we found an increase in CHOP expression starting from 3 h of CP treatment. […] Whilst GRP78, due to its chaperon activity, exerts a protective function, CHOP promotes ER-stress cell death, thus the rapid activation of pro-death signals and the late activation of pro-survival chaperone GRP78 could explain the commitment toward apoptosis induced by CP. Moreover, in unresolvable stress conditions, an increased CHOP expression has been correlated to the induction of the expression of many apoptotic genes and to the down-regulation prosurvival genes, such as Bcl-2 [30].
FIGURE 4 CP induces ER stress Western Blot analysis showing expression of GRP78 and CHOP in SEM (A) and in RS4;11 (B) cells. Cells were treated with CP 2.5 μM for the indicated times. (C) PCR analysis showing the induction of XBP1 splicing in SEM and RS4;11 cells. Cells were treated with CP (2.5 μM) or Tunicamycin (2 μg/ml) as positive control for 12 h.
Cells were treated with CP and Tunicamycin as positive control, collected, centrifuged and washed with PBS. Total RNA was extracted from cells using Trizol (Life Technologies, Italy) as previously described. Primer pair used to amplified XBP1 isoforms: forward 5'-[…]-3', reverse 5'-[…]-3'. To separate isoforms, PCR products were run in 5% agarose gel.

[4] = system: ubiquitinated proteins; assay: Western blot, Ubiquitin accumulation
Description: FIGURE 3 CP treatment affects Ubiquitin Proteasome System (UPS) 26S proteasome (100 μg) semipurified from (A) SEM and (B) RS4;11 cells was incubated for 60 min at 37 °C with CP at different concentrations. Chymotrypsin (CT), trypsin (T) and peptidyl glutamyl peptide hydrolyzing (PGPH) catalytic activity were measured fluorimetrically (excitation 370, nm emission 460) by following the release of free AMC from synthetic substrates N-Suc-Leu-Leu-Val-Tyr-AMC, Boc-Gln-Ala-Arg-AMC and Z-Leu-Leu-Glu-AMC, specific for CT, T and PGPH activity, respectively. (C) Cells were incubated with CP 2.5 μM for the indicated times and then western blot analyses were performed to evaluate Ubiquitin accumulation.
In normal conditions, misfolded proteins in the ER are driven to the cytoplasm, where upon ubiquitination, are degraded by the proteasome system. […] To assess if CP worked as other proteasome inhibitors, we evaluated the accumulation of ubiquitin after 1.5, 3, and 6 h of treatment.
Cells were treated with CP and, after different times, were collected, centrifuged and washed with ice cold phosphate-buffered saline (PBS). The pellet was then resuspended in lysis buffer as described. The protein concentration in the supernatant was determined using the BCA protein assay (Pierce, Italy). […]

[5] = system: RS4;11 and SEM cells; assay: Cytochrome c release by flow cytometry; conditions: CP 2.5 μM, 24 h
Description: To determine whether the apoptotic stimuli involved mitochondria alteration, we examined the mitochondrial transmembrane potential (ΔΨmt) by means of the fluorescence dye JC-1.
FIGURE 2 CP induces caspase-dependent apoptosis without mitochondria involvement (A) Assessment of mitochondrial membrane potential (ΔΨmt) after treatment of RS4;11 and SEM cells with CP (2.5 μM) for the indicated times. Cells were stained with the fluorescent probe JC-1. Data are represented as mean ± S.E.M. of three independent experiments. (B) Flow cytometric analysis of RS4;11 and SEM cells treated with CP (2.5 μM) for 24 h showing cytochrome c labeled with a monoclonal antibody conjugated to FITC. Representative image of three experiments with similar results. (C) Cells were incubated with CP 2.5 μM and 5 μM in the presence or absence of the pan-caspase inhibitor z-VAD.fmk (100 μM). Cell viability was determined after 48 h by MTT assay. […]
The mitochondrial membrane potential was measured with the lipophilic cation 5,5',6,6'-tetrachlo-1,1',3,3'-tetraethylbenzimidazolyl-carbocyanine (JC-1) (Life Technologies, Italy) as previously described. Cytochrome c release was analyzed by flow cytometry using a commercial kit (Innocyte flow cytometric cytochrome c release kit, Calbiochem, Italy) following the manufacturer's instructions.

F[P-](F)(F)(F)(F)F.OCP(CO)CO.OCP(CO)CO.OCP(CO)CO.OCP(CO)CO.[Cu+] [CP, [Cu(thp)4][PF6]]
cell population with hypodiploid DNA content peak (subG1) [1]: concentration-dependent increase | effect on cell cycle progression [1]: did not affect cell cycle | GI50 [2]: 22.7 ± 2.9 µM | XBP1 splicing [3]: induced XBP1 splicing in both cell lines | onset of accumulation of ubiquitinated proteins ([4]; RS4;11, CP 2.5 μM): ≥ 3 h | onset of accumulation of ubiquitinated proteins ([4]; SEM, CP 2.5 μM): ≥ 1.5 h | cytochrome c release [5]: did not reveal cytochrome c release

— publication PMC4171606, “A novel copper(I) complex induces ER-stress-mediated apoptosis and sensitizes B-acute lymphoblastic leukemia cells to chemotherapeutic agents” (Oncotarget, 2014)
